# In patent publication US20150099883A1, “ARYLOXYUREA COMPOUND AND PEST CONTROL AGENT” (NIPPON SODA CO., LTD., priority 2012, published 2015):
# Assays:
# [1] = system: adult female Tetranychus kanzawai from Okayama Prefecture; test: Efficacy test against Tetranychus kanzawai (spray on kidney bean plant); format: in vivo; settings: 500 ppm emulsion sprayed
# Procedure: Ten adult female Tetranychus kanzawai acarus from Okayama Prefecture were inoculated onto the first leaves of a kidney bean plant planted in a No. 3 pot 7 to 10 days after germination. Next, an emulsion was prepared having the formula indicated in the aforementioned Preparation example 2. This emulsion was diluted with water to a compound concentration of 500 ppm or 125 ppm after which the diluted liquids were sprayed onto the kidney bean plant. The kidney bean plant was then placed in a temperature-controlled room at a temperature of 25° C. and humidity of 65%. The life and death of the adult insects were investigated 3 days after the spraying. In addition, the development from eggs laid to adult was investigated 14 days after the spraying.
# The aforementioned test was carried out on the emulsion containing the Compound No. 2-1 at 500 ppm. As a result, the insect mortality rates after 3 days and 14 days for the compound were 90% or higher.
SMILES,melting point,insect mortality rate after 3 days ([1]; 3 days after spraying),insect mortality rate after 14 days ([1]; 14 days after spraying)
CC(C)(NC(=O)NOc1ccc2ncsc2c1)c1ccccn1,164 to 166 °C,,
CCN(Oc1ccc2ncsc2c1)C(=O)N=S(C)(=O)c1ccccc1 (stereo not drawn) [Compound No. 2-1],,≥ 90%,≥ 90%
